{"source": "patent US8993725B2", "about": "“Notch-based fusion proteins and uses thereof” (The Trustees of Columbia University in the City of New York, priority 2004, dated 2015)", "format_in_all_cases": "cell-based, Human", "key": {"Ad-N1IC-transduced HUVEC": {"tested_on": "Ad-N1IC-transduced HUVEC", "assay": "Notch-induced budding of Ad-N1IC-transduced HUVEC on gel", "conditions": "for Effect of receptor tyrosine kinase inhibitors on budding of Ad-N1IC-HUVEC: inhibitors at 1 μM, Ad-N1IC 40 MOI, complete medium", "method": "HUVEC were transduced with either Ad-LacZ or Ad-N1IC at 40 MOI. FIGS. 23A-23C show the effect of inhibitors for receptor tyrosine kinases on Notch-induced HUVEC budding. FIG. 23A is a photograph of budding of Ad-N1IC-transduced HUVEC treated with PD166866, ZD1893 at 1 μM and SU5416 at 0.5 μM. […] FIGS. 23F-G show promotion of Notch-induced HUVEC budding with PlGF stimulation. Ad-N1IC-transduced HUVEC were cultured on collagen gel with SFM, instead of complete medium, in the absence or presence of 50 ng/ml PlGF. […] FIGS. 23H-I show the effect of Flt-1 siRNA transfection on Flt1 expression. Ad-N1IC-transduced HUVEC were transfected with 200 pmol of either control (CT) or Flt-1 siRNA. […] Ad-N1IC-transduced HUVEC were transfected with either 100 or 200 pmol of siRNA and cultured on collagen gel for 2 days.\nEither Ad-LacZ or Ad-N1IC-HUVEC at a MOI of 40 pfu/cell were cultured on collagen gel for 5 days in the absence or presence of GM6001 at 50 μm.\nTo test whether Notch signaling is down-stream of VEGF, we evaluated three distinct inhibitors for receptor tyrosine kinases, including VEGFR on N1IC-induced HUVEC budding, because three growth factors existed in complete medium (FIG. 23A-C). […] Thus, we examined whether activation of Notch signaling affected Flt1/VNGFR1 expression in HUVEC, because SU5416 inhibits both Flt1 and Flk1 kinase activity (15). […] PlGF increased the number of Ad-N1IC-HUVEC buds by 150%, compared to the absence of PlGF (FIG. 23F). Moreover, PlGF increased HUVEC buds containing multiple filopodia by 250% (FIG. 23G)."}, "HUVEC": {"tested_on": "HUVEC", "assay": "HUVEC proliferation (CCK-8 kit)", "conditions": "SFM with 1% FBS, 4 days", "method": "These Figures show proliferation of Ad-VEGF165-transduced HUVEC. HUVEC were transduced with Ad-VEGF165 at the indicated dosages. Ad-LacZ was also co-infected to make the same total amount of adenovirus at a MOI of 40 pfu/cell. HUVEC were suspended in SFM supplemented with 1% FBS and then plated at 1×10^4 cells/well in 24-well multi-well plates with 0.4 ml of medium. After 4 days, cell numbers were determined using the CCK-8 kit and the results are indicated as the ratio of cell numbers determined to the number of control cells, which were transduced with Ad-GFP at a MOI of 40 pfu/cell. […] Ad-VEGF-transduced HUVEC were treated with SU5416 at the indicated dosages.\nThese Figures show the effect of alteration of Notch signaling on cell proliferation. The cells were transduced with the indicated adenoviruses. Ad-GFP was also co-infected to make the same total amount of adenovirus at a MOI of 60 pfu/cell. After 4 days, cell numbers were determined using the CCK-8 kit and results are indicated as the ratio of cell numbers determined to the number of control cells, which were transduced with AD-GFP at MOI of 60 pfu/cell. […] Transduced HUVEC were suspended in complete medium and then plated at 1×10^4 cells/well in 24-well multiwell plates with 0.4 ml of indicated medium (□: Ad-N1IC; ▪: Ad-N1ECDFc). […]"}, "[1]": {"tested_on": "Notch signaling (CBF1 promoter activity) in HUVEC", "assay": "VEGF-induced Notch signaling, CBF1 promoter / CSL-luciferase reporter activity in HUVEC", "conditions": "Ad-VEGF-transduced HUVEC, 20 MOI", "method": "To determine VEGF-induced Notch signaling, HUVEC which were infected with adenovirus were used. HUVEC plated 1-day prior in 6 well plates at 8.0×10^5 were infected with either Ad-LacZ as control or Ad-VEGF at indicated m.o.i. in the presence or absence of Ad-N1ECD/Fc. Two days after infection, infected HUVEC were re-seeded into 24-well plate at 1.5×10^5 cell in triplicate and cultured for 24 hours, and then transfected with 12.5 ng pRL-SV40 (Promega) and 137.5 ng pGA981-6 using Effectene transfection reagent (Qiagen). Cells were harvested either 1 or 2 days post-transfection and luciferase activity was determined by using the Dual-Luciferase® Reporter Assay System (Promega).\nOne can measure Notch signaling function by measuring transcriptional activity of CBF1 promoter, which is activated by binding of Notch-IC to CBF1. We measured CBF1 promoter activity in HUVEC which was infected with adenovirus encoding VECF-165 at different MOI (FIG. 6). Induction of CBF1 promoter was clearly detected in Ad-VEGF-infected HUVEC, compared to Ad-LacZ-infected cells in the MOI dependent manner. […] Thus VEGF induced Notch signaling activity."}}, "note": "“Also recorded” adds a separate entry of the source."}
{"molecule": "CNC(=O)[C@H](Cc1c[nH]c2ccccc12)NC(=O)[C@@H](CC(=O)NO)CC(C)C", "note": "[GM6001]", "values": [{"measurement": "Effect on budding of Ad-N1IC-HUVEC on collagen gel", "setting": "Ad-N1IC-transduced HUVEC; GM6001 at 50 μm, 5 days", "result": "inhibition of budding; also recorded: clearly decreased budding"}, {"measurement": "Effect on budding of Ad-N1IC-HUVEC on fibrin gel", "setting": "Ad-N1IC-transduced HUVEC; data not shown", "result": "clearly decreased budding"}]}
{"molecule": "COc1cc(OC)cc(-c2cc3cnc(N)nc3nc2NC(=O)NC(C)(C)C)c1", "note": "[PD166866]", "values": [{"measurement": "Effect of receptor tyrosine kinase inhibitors on budding of Ad-N1IC-HUVEC", "setting": "Ad-N1IC-transduced HUVEC", "result": "Neither PD166866 or ZD1893 affected budding"}]}
{"molecule": "Cc1cc(C)c(/C=C2\\C(=O)Nc3ccccc32)[nH]1", "note": "[SU5416, reference compound]", "values": [{"measurement": "Effect of receptor tyrosine kinase inhibitors on budding of Ad-N1IC-HUVEC", "setting": "Ad-N1IC-transduced HUVEC", "result": "clearly inhibited"}, {"measurement": "Dose-dependency of effect on budding versus viability of Ad-N1IC-HUVEC", "setting": "Ad-N1IC-transduced HUVEC; lower concentrations", "result": "selectively inhibited budding of Ad-N1IC-HUVEC with less reduction of viability at lower concentrations"}, {"measurement": "Proliferation of Ad-VEGF-transduced HUVEC", "setting": "HUVEC", "result": "inhibitory effect"}, {"measurement": "Effect of compound treatment on VEGF-induced CSL-luciferase reporter activity", "setting": "[1]", "result": "decreased VEGF-induced CSL-luciferase reporter activity"}]}
{"molecule": "COc1cc2ncnc(Nc3ccc(F)c(Cl)c3)c2cc1OCCCN1CCOCC1", "note": "[ZD1893]", "values": [{"measurement": "Effect of receptor tyrosine kinase inhibitors on budding of Ad-N1IC-HUVEC", "setting": "Ad-N1IC-transduced HUVEC", "result": "Neither PD166866 or ZD1893 affected budding"}]}
{"molecule": "PlGF: a selective ligand for Flt1 (protein, UniProt P49763 19-221, looked up) Placenta growth factor: LPAVPPQQWALSAGNGSSEVEVVPFQEVWGRSYCRALERLVDVVSEYPSEVEHMFSPSCVSLLRCTGCCGDENLHCVPVETANVTMQLLKIRSGDRPSYVELTFSQHVRCECRHSPGRQSPDMPGDFRADAPSFLPPRRSLPMLFRMEWGCALTGSQSAVWPSSPVPEEIPRMHPGRNGKKQQRKPLREKMKPERCGDAVPRR", "values": [{"measurement": "Increase of HUVEC buds containing multiple filopodia", "setting": "Ad-N1IC-transduced HUVEC; 50 ng/ml PlGF, SFM, collagen gel", "result": 250, "unit": "%"}, {"measurement": "Increase of the number of Ad-N1IC-HUVEC buds", "setting": "Ad-N1IC-transduced HUVEC; 50 ng/ml PlGF, SFM, collagen gel, compared to the absence of PlGF", "result": 150, "unit": "%"}]}
